Test [1] concerns the target T1, κ-opioid receptor (Homo sapiens, UniProt P41145). The test is described as follows: κ-opioid receptor radioligand dose displacement binding assay ([3H]-U69,593). Further details: expressed in transfected cells; host or cells: HEK-293 (in-house membrane prep). As for the experimental part:
Membranes from HEK-293 cells, CHO or U-2 OS cells expressing the recombinant human kappa opioid receptor (K) were prepared by lysing cells in ice cold hypotonic buffer (2.5 mM MgCl2, 50 mM HEPES, pH 7.4) (10 mL/10 cm dish) followed by homogenization with a tissue grinder/Teflon pestle. Membranes were collected by centrifugation at 30,000×g for 15 min at 4° C. and pellets were resuspended in hypotonic buffer to a final concentration of 1-3 mg/mL. Protein concentrations were determined using the BioRad protein assay reagent with bovine serum albumen as standard. Aliquots of κ receptor membranes were stored at −80° C.
Radioligand dose displacement assays used 0.4 nM [^3H]-U69,593 (GE Healthcare, Piscataway, N.J.; 40 Ci/mmole) with 15 μg membrane protein (recombinant K opioid receptor expressed in HEK 293 cells; in-house prep) in a final volume of 200 μl binding buffer (5% DMSO, 50 mM Trizma base, pH 7.4). Non-specific binding was determined in the presence of 10 μM unlabeled naloxone or U69,593. All reactions were performed in 96-well polypropylene plates for 1 hour at a temperature of about 25° C. Binding reactions were terminated by rapid filtration onto 96-well Unifilter GF/C filter plates (Perkin Elmer, Shelton, Conn.) presoaked in 0.5% polyethylenimine (Sigma). Harvesting was performed using a 96-well tissue harvester (Perkin Elmer, Shelton, Conn.) followed by five filtration washes with 200 μl ice-cold binding buffer. Filter plates were subsequently dried at 50° C. for 1-2 hours. Fifty μl/well scintillation cocktail (Perkin Elmer, Shelton, Conn.) was added and plates were counted in a Packard Top-Count for 1 min/well.
In TABLE 1, binding affinity of certain Compounds of the Invention to the κ-opioid receptors was determined as described above.

The target in test [2] is T1, κ-opioid receptor. The experiment in a line: κ-opioid receptor [35S]GTPγS functional assay. It counts as biochemical. Further details: expressed in transfected cells; host or cells: HEK-293 (in-house membranes). The method, then:
Functional [^35S]GTPγS binding assays were conducted as follows. K opioid receptor membrane solution was prepared by sequentially adding final concentrations of 0.026 μg/μl κ membrane protein (in-house), 10 μg/mL saponin, 3 μM GDP and 0.20 nM [^35S]GTPγS to binding buffer (100 mM NaCl, 10 mM MgCl2, 20 mM HEPES, pH 7.4) on ice. The prepared membrane solution (190 μl/well) was transferred to 96-shallow well polypropylene plates containing 10 μl of 20× concentrated stock solutions of agonist prepared in DMSO. Plates were incubated for 30 min at a temperature of about 25° C. with shaking. Reactions were terminated by rapid filtration onto 96-well Unifilter GF/B filter plates (Perkin Elmer, Shelton, Conn.) using a 96-well tissue harvester (Packard) and followed by three filtration washes with 200 μl ice-cold binding buffer (10 mM NaH2PO4, 10 mM Na2HPO4, pH 7.4). Filter plates were subsequently dried at 50° C. for 2-3 hours. Fifty μl/well scintillation cocktail (Perkin Elmer, Shelton, Conn.) was added and plates were counted in a Packard Top-Count for 1 min/well.
κ GTP EC50 is the concentration of a compound providing 50% of the maximal response for the compound at a κ receptor.
κ GTP Emax (%) is the maximal effect elicited by a compound relative to the effect elicited by U69,593.
(§1) In TABLE 2, activity response of certain Compounds of the Invention to the μ- and κ-opioid receptors was determined as described above for functional assays using HEK-293 cells.
In general terms: Binding of GTPγS marks nucleotide exchange on a G protein.

A further test has as its target T2, μ-opioid receptor (Homo sapiens, UniProt P35372).
T2 construct: host or cells: HEK-293; b235 lists HEK-293, CHO or U-2 OS)
The experiment in a line: μ-opioid receptor [35S]GTPγS functional assay. It counts as biochemical. The method, then:
[^35S]GTPγS functional assays were conducted using freshly thawed μ-receptor membranes prepared in-house from a cell line expressing recombinant t opioid receptor in a HEK-293, CHO or U-2 OS cell background, or purchased from a commercial source (Perkin Elmer, Shelton, Conn.; or DiscovRx, Fremont, Calif.). Assay reactions were prepared by sequentially adding the following reagents to binding buffer (100 mM NaCl, 10 mM MgCl2, 20 mM HEPES, pH 7.4) on ice (final concentrations indicated): membrane protein (0.026 mg/mL), saponin ([…]), GDP ([…]) and [^35S]GTPγS (0.20 nM; Perkin Elmer, Shelton, Conn.). The prepared membrane solution (190 μl/well) was transferred to 96-shallow well polypropylene plates containing 10 al of 20× concentrated stock solutions of the agonist [D-Ala^2, N-methyl-Phe^4 Gly-ol^5]-enkephalin (DAMGO) prepared in dimethyl sulfoxide (DMSO). Plates were incubated for 30 min at about 25° C. with shaking. Reactions were terminated by rapid filtration onto 96-well Unifilter GF/B filter plates (Perkin Elmer, Shelton, Conn.) using a 96-well tissue harvester (Perkin Elmer, Shelton, Conn.) followed by three filtration washes with 200 μl of ice-cold wash buffer (10 mM NaH2PO4, 10 mM Na2HPO4, pH 7.4). Filter plates were subsequently dried at 50° C. for 2-3 hours. BetaScint scintillation cocktail (Perkin Elmer, Shelton, Conn.) was added (50 μl/well) and plates were counted using a Packard Top-Count for 1 min/well. Data were analyzed using the sigmoidal dose-response curve fitting functions in GraphPad PRISM v. 3.0, or an in-house function for non-linear, sigmoidal dose-response curve-fitting.
μGTP EC50 is the concentration of a compound providing 50% of the maximal response for the compound at a μ-opioid receptor.
μ GTP Emax (%) is the maximal effect elicited by a compound relative to the effect elicited by DAMGO, a standard agonist. Generally, the μ GTP Emax (%) value measures the efficacy of a compound to treat or prevent pain or other Conditions.
as §1

Each structure is given as a SMILES string.

T1 sequence (P41145 whole entry): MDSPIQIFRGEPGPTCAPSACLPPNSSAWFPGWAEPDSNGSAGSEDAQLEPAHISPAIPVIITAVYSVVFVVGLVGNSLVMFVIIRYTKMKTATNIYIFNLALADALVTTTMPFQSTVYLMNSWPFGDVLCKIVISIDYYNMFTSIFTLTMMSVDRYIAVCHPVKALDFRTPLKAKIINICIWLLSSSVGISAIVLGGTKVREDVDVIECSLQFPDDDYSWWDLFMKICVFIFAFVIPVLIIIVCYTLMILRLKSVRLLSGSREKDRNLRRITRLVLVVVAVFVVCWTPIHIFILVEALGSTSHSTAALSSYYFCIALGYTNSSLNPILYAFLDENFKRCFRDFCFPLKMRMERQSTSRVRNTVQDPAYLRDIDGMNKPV
T2 sequence (P35372 whole entry, species assumed): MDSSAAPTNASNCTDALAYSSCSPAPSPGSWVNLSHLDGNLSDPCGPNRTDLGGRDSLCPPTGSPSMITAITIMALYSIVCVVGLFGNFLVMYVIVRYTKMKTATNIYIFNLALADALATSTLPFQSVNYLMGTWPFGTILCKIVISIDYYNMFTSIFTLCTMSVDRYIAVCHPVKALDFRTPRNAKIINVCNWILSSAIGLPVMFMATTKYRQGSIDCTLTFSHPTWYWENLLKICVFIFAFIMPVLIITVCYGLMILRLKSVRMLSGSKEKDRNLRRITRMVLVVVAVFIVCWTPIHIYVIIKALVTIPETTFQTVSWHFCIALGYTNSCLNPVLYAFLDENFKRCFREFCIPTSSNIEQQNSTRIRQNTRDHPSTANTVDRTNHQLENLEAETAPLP

`CN1CC[C@]23Cc4[nH]c(=O)c(C(=O)N5[C@@H]6CC[C@H]5C[C@@H](O)C6)cc4C[C@H]2[C@H]1Cc1ccc(O)cc13` [Compound 17, (6R,6aR,12aS)-2-hydroxy-9-((1R,3R,5S)-3-hydroxy-8-azabicyclo[3.2.1]octane-8-carbonyl)-15-methyl-6,6a,7,12-tetrahydro-5H-6,12a-(epiminoethano)naphtho[2,1-g]quinolin-10(11H)-one] yielded a Ki at κ-opioid receptor [1] of 17.7 ± 7.6 nM. The EC50 on κ-opioid receptor [2] came to 152 ± 28.8 nM; on μ-opioid receptor, 240 ± 36.8 nM. Also, the Emax turned out to be 9.74 ± 1.51% at κ-opioid receptor [2] (maximal effect relative to the effect elicited by U69,593, HEK-293 cells) and 27.5 ± 2.53% at μ-opioid receptor (maximal effect relative to the effect elicited by DAMGO, HEK-293 cells).

For orientation: Ki means the dissociation constant of the complex between target and ligand, obtained from inhibition or displacement. The EC50 is the midpoint of the concentration-response curve. By Emax is commonly meant the maximal effect, on the per cent scale that the assay sets.

(Values after patent publication US10131666B2, “Heterocyclic morphinan derivatives and use thereof” (Purdue Pharma L.P., priority 2014, dated 2018).)
